This assay has as its system P388 leukemia ip, CD2F1 mice, survival T/C. Kind of assay: NCI In Vivo Anticancer Drug Screen. Data for tumor model P388 Leukemia (intraperitoneal) in CD2F1 (CDF1) mice. Particulars: endpoint: median survival time, higher = longer survival. In a few lines: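 Mice carrying the transplanted tumor received test compound or vehicle. Survival was recorded in each group, and the value is the treated-group measurement divided by that of the vehicle-treated control group.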

[1] abbreviates: dose: 50.0 mg/kg/injection, schedule: Q01DX009 (ip), vehicle: saline with Tween-80.
Setting [2] is: dose: 100.0 mg/kg/injection, schedule: Q01DX009 (ip), vehicle: saline with Tween-80.
Where [3] appears, read: dose: 200.0 mg/kg/injection, schedule: Q01DX009 (ip), vehicle: saline with Tween-80.
The mark [4] stands for this setting: dose: 50.0 mg/kg/injection, schedule: Q01DX009 (ip), vehicle: saline.
[5] abbreviates: dose: 100.0 mg/kg/injection, schedule: Q01DX009 (ip), vehicle: saline.
Setting [6] is: dose: 200.0 mg/kg/injection, schedule: Q01DX009 (ip), vehicle: saline.
[7] abbreviates: dose: 50.0 mg/kg/injection, schedule: Q01DX005 (ip), vehicle: Klucel (hydroxypropylcellulose) (HPC).
Where [8] appears, read: dose: 100.0 mg/kg/injection, schedule: Q01DX005 (ip), vehicle: Klucel (hydroxypropylcellulose) (HPC).
Where [9] appears, read: dose: 60.0 mg/kg/injection, schedule: Q01DX005 (ip), vehicle: saline with Tween-80.
[10] abbreviates: dose: 120.0 mg/kg/injection, schedule: Q01DX005 (ip), vehicle: saline with Tween-80.
Setting [11] is: dose: 240.0 mg/kg/injection, schedule: Q01DX005 (ip), vehicle: saline with Tween-80.
The mark [12] stands for this setting: dose: 12.5 mg/kg/injection, schedule: Q01DX009 (ip), vehicle: saline with Tween-80.
Where [13] appears, read: dose: 25.0 mg/kg/injection, schedule: Q01DX009 (ip), vehicle: saline with Tween-80.
[14] abbreviates: dose: 100.0 mg/kg/injection, schedule: Q04DX003 (ip), vehicle: saline with Tween-80.

Structures are written as SMILES. Where “and” joins values, the source holds several entries; their conditions need not be identical. Equal entries are not always repeated. Inconclusive results and toxic doses are left out.

As for `COc1cc2c(cc1O)C(CSC)Cc1cc(OC)c(OC)cc1N(C)CC2` (stereo unspecified), the T/C by setting is: under setting [1], 104 % of control; under setting [2], 101 % of control; under setting [3], 109 % of control.
For `CC1(CSc2ccc3ccccc3c2)CC(=O)N1` (stereo unspecified), the T/C reads like this: (dose: 100.0 mg/kg/injection, schedule: Q01DX001 (ip), vehicle: suspension in saline) 99 % of control; (dose: 200.0 mg/kg/injection, schedule: Q01DX001 (ip), vehicle: suspension in saline) 99 % of control; (dose: 400.0 mg/kg/injection, schedule: Q01DX001 (ip), vehicle: suspension in saline) 98 % of control.
Regarding `C=CCOc1cc2c(cc1OCC=C)C(=O)c1cc3c(cc1C2=O)OCO3`, the T/C was 95 % of control (dose: 7.5 mg/kg/injection, schedule: Q01DX005 (ip), vehicle: saline with Tween-80) and 93 % of control (dose: 15.0 mg/kg/injection, schedule: Q01DX005 (ip), vehicle: saline with Tween-80).
As to `O=S(=O)(O)Sc1ncnc2nc[nH]c12`, the T/C reads like this: under setting [4], 108 % of control; (dose: 75.0 mg/kg/injection, schedule: Q04DX003 (ip), vehicle: saline) 100 % of control; under setting [5], 122 % of control; (dose: 150.0 mg/kg/injection, schedule: Q04DX003 (ip), vehicle: saline) 98 % of control; under setting [6], 108 % of control; (dose: 300.0 mg/kg/injection, schedule: Q04DX003 (ip), vehicle: saline) 108 % of control.
As for `O=c1c2ccccc2nc(CCN(CCCl)CCCl)n1-c1ccc(Cl)cc1`, the T/C (dose: 25.0 mg/kg/injection, schedule: Q01DX001 (ip), vehicle: saline) is 106 % of control; the T/C (dose: 50.0 mg/kg/injection, schedule: Q01DX001 (ip), vehicle: saline) is 113 % of control; the T/C (dose: 200.0 mg/kg/injection, schedule: Q01DX001 (ip), vehicle: saline) was 164 % of control.
Regarding `N#Cc1c(NC(=O)CCC(=O)O)ccc2ccccc12`, the T/C was 99 % of control under setting [4], 114 % of control under setting [5] and 114 % of control under setting [6].
In the case of `O=C(Nc1n[nH]c(NC(=O)c2ccccc2)n1)c1ccccc1`, the T/C is, setting by setting: under setting [7], 92 % of control; under setting [8], 88 % of control.
With `O=C(O)c1ccc(S(=O)(=O)F)c(Cl)c1`, the T/C by setting is: under setting [9], 120 % of control; under setting [10], 119 % of control; under setting [11], 121 % of control.
As to `CCCCCCCC/C=C\CCCCCCCC(=O)OCCN(CCOC(=O)CCCCCCC/C=C/CCCCCCCC)C(=O)COC(=O)CCCCCCC/C=C\CCCCCCCC`, the T/C was 104 % of control under setting [1], 104 % of control under setting [2] and 104 % of control under setting [3].
Take `O=C1c2ccccc2-c2nsc3c(C(Br)Br)ccc1c23`: the T/C was 99 % of control under setting [7]; 87 % of control under setting [8]; 91 % of control (dose: 200.0 mg/kg/injection, schedule: Q01DX005 (ip), vehicle: Klucel (hydroxypropylcellulose) (HPC)).
`CC(C)C12CN1C2(c1ccccc1)c1ccccc1` (stereo unspecified): the T/C by setting is: under setting [9], 100 % of control; under setting [10], 106 % of control; under setting [11], 107 % of control.
For `Cc1cn(CCCOc2c3occc3cc3ccc(=O)oc23)c(=O)[nH]c1=O`, the T/C (dose: 12.5 mg/kg/injection, schedule: Q01DX005 (ip), vehicle: Klucel (hydroxypropylcellulose) (HPC)) is 86 % of control; the T/C (dose: 25.0 mg/kg/injection, schedule: Q01DX005 (ip), vehicle: Klucel (hydroxypropylcellulose) (HPC)) was 96 % of control; the T/C under setting [7] was 88 % of control.
Regarding `CCSCCC(N)C(=O)O` (stereo unspecified), the T/C reads like this: under setting [12], 95 % of control; under setting [13], 100 % of control; under setting [1], 100 % of control; under setting [14], 104 % of control; (dose: 200.0 mg/kg/injection, schedule: Q04DX003 (ip), vehicle: saline with Tween-80) 100 % of control; (dose: 400.0 mg/kg/injection, schedule: Q04DX003 (ip), vehicle: saline with Tween-80) 109 % of control.
In the case of `Nc1nc(-c2ccccc2)nc(Cl)c1I`, the T/C runs as follows: under setting [13], 103 % of control; under setting [1], 105 % of control; under setting [2], 102 % of control; (dose: 100.0 mg/kg/injection, schedule: Q04DX003 (ip), vehicle: saline) 94 % of control; under setting [3], 105 % of control; (dose: 200.0 mg/kg/injection, schedule: Q04DX003 (ip), vehicle: saline) 94 % of control. Moreover, the T/C (dose: 400.0 mg/kg/injection, schedule: Q04DX003 (ip), vehicle: saline) is 101 % of control.
`Cc1ccc(S(=O)(=O)N=N/C=C2/C=CC=CN2O)cc1`: the T/C reads like this: (dose: 25.0 mg/kg/injection, schedule: Q01DX009 (ip), vehicle: Klucel (hydroxypropylcellulose) (HPC)) 118 % of control and 121 % of control; (dose: 50.0 mg/kg/injection, schedule: Q01DX009 (ip), vehicle: Klucel (hydroxypropylcellulose) (HPC)) 119 % of control; (dose: 200.0 mg/kg/injection, schedule: Q01DX009 (ip), vehicle: Klucel (hydroxypropylcellulose) (HPC)) 124 % of control.
`CN=C(NC)c1ccc(NC(=O)/C=C\c2ccc(C(=O)Nc3ccc(C(=NC)NC)cc3)cc2)cc1`: the T/C (dose: 3.13 mg/kg/injection, schedule: Q01DX009 (ip), vehicle: saline with Tween-80) was 172 % of control; the T/C (dose: 4.4 mg/kg/injection, schedule: Q04DX003 (ip), vehicle: saline with Tween-80) is 150 % of control; the T/C (dose: 6.25 mg/kg/injection, schedule: Q01DX009 (ip), vehicle: saline with Tween-80) is 113 % of control; the T/C (dose: 10.0 mg/kg/injection, schedule: Q04DX003 (ip), vehicle: saline with Tween-80) is 155 % of control; the T/C under setting [12] was 95 % of control; the T/C (dose: 15.0 mg/kg/injection, schedule: Q04DX003 (ip), vehicle: saline with Tween-80) is 155 % of control.
On to `CC1(c2ccccc2)c2ccccc2N(c2ccccc2)C(=O)C1O` (stereo unspecified), for which the T/C by setting is: (dose: 100.0 mg/kg/injection, schedule: Q04DX003 (ip), vehicle: Klucel (hydroxypropylcellulose) (HPC)) 101 % of control and 109 % of control; (dose: 200.0 mg/kg/injection, schedule: Q04DX003 (ip), vehicle: Klucel (hydroxypropylcellulose) (HPC)) 100 % of control and 107 % of control; (dose: 400.0 mg/kg/injection, schedule: Q04DX003 (ip), vehicle: Klucel (hydroxypropylcellulose) (HPC)) 100 % of control and 109 % of control.
In the case of `CN(C)c1ncnc2c1ccn2CC(O)CO` (stereo unspecified), the T/C (dose: 50.0 mg/kg/injection, schedule: Q01DX005 (ip), vehicle: distilled water + alcohol) was 109 % of control; the T/C (dose: 100.0 mg/kg/injection, schedule: Q01DX005 (ip), vehicle: distilled water + alcohol) was 101 % of control; the T/C (dose: 200.0 mg/kg/injection, schedule: Q01DX005 (ip), vehicle: distilled water + alcohol) was 97 % of control.
On to `Cc1nc2c([N+](=O)[O-])c(NCCCc3ccccc3)c([N+](=O)[O-])cc2[nH]1`, for which the T/C runs as follows: (dose: 50.0 mg/kg/injection, schedule: Q04DX003 (ip), vehicle: saline with Tween-80) 94 % of control; under setting [14], 100 % of control and 96 % of control.
Take `OCc1sccc1-n1cccc1`: the T/C under setting [9] was 104 % of control, the T/C under setting [10] was 104 % of control and the T/C under setting [11] was 104 % of control.
For `CCC(SC)C(=O)N(C)c1ccccc1` (stereo unspecified), the T/C is 104 % of control (dose: 6.25 mg/kg/injection, schedule: Q01DX009 (ip), vehicle: saline); 107 % of control (dose: 12.5 mg/kg/injection, schedule: Q01DX009 (ip), vehicle: saline); 90 % of control under setting [13]; 114 % of control (dose: 25.0 mg/kg/injection, schedule: Q01DX009 (ip), vehicle: saline); 109 % of control under setting [2].
Regarding `COC(=O)C1(C)N=C1N(C)C` (stereo unspecified), the T/C runs as follows: (dose: 100.0 mg/kg/injection, schedule: Q04DX002 (ip), vehicle: saline) 92 % of control; (dose: 200.0 mg/kg/injection, schedule: Q04DX002 (ip), vehicle: saline) 90 % of control; (dose: 400.0 mg/kg/injection, schedule: Q04DX002 (ip), vehicle: saline) 93 % of control.
Regarding `COc1ccc(C(=NCCc2ccccc2)c2ccccc2)c(O)c1`, the T/C reads like this: (dose: 100.0 mg/kg/injection, schedule: Q04DX002 (ip), vehicle: saline with Tween-80) 100 % of control; (dose: 200.0 mg/kg/injection, schedule: Q04DX002 (ip), vehicle: saline with Tween-80) 98 % of control; (dose: 400.0 mg/kg/injection, schedule: Q04DX002 (ip), vehicle: saline with Tween-80) 100 % of control.

Source of the values: PubChem BioAssay AID330 (DTP/NCI, 2004).
